Experimental data as given in patent US7081465B2, “Alpha-substituted naphthyloxy omega-substituted alky/aryl amino-substituted alkane derivatives as agent for treatment or prophylaxis of diabetes and related metabolic disorders” (Council of Scientific and Industrial Research, priority 2003, dated 2006).
Marks after values point to notes of the source that are not given here.

Legend:
[1] = tested on: STZ-induced diabetic rats; test: Streptozotocin-induced diabetic rat model, single-dose effect on blood glucose; format: in vivo, Sprague Dawley rats; details: 100 mg/kg; for lowering on blood glucose in STZ-induced diabetic rats: 1 to 7 hours post drug administration; for start of blood glucose lowering post drug administration: STZ-induced diabetic rats
Description: Streptozotocin-Induced Diabetic Rat Model:
Single-dose effect; Sprague Dawley strain male albino rats of average body weight 160±20 g were selected for this study. A calculated amount of the fresh solution of STZ dissolved in 100 mM citrate buffer (ph 4.5) was injected to overnight fasted rats (60 mg/Kg) intraperitoneally. Blood was checked for glucose content 48 h later by glucometer & animals showing blood glucose profile above 250 mg/dl were selected and were divided into different groups. Blood-glucose levels were again tested at 1, 2, 3, 4, 5, 6, 7 and 24 h post test sample/drug administration. Food but not water was withdrawn from the cages during the experiment.
The effect of Test compound 1 and standard antidiabetic drug Glybenclamide and gliclazide on blood glucose lowering in STZ-induced diabetic rats were determined. […] The lowering started from 1-hour that persisted up to 7-hours post drug administration.

[2] = tested on: HFD fed dyslipemic hamsters; test: Dyslipemic hamster model (fructose rich high fat diet); format: in vivo, golden syrian hamster
From the text: (b) Dyslipemic Hamster Model: Male golden syrian hamster weighing 120–130 gm were divided into control, dyslipemic and dyslipemic plus drug treated group of 8 animals in each.
Dyslipemia was produced by feeding with fructose rich high fat diet(HFD). Dyslipemic hamsters had free acccess to HFD and water ad. Lib for 10 days (day 1 to day 10). Compound 1 was macerated in vehicle containing 0.2% CMC+0.4% tween-80 in distilled water and fed orally at the dose of 300[…] mole/kg from day 4 to day 10 simultaneously with HFD feeding to hamster. Control animals received same amount of vehicle. At the end of the experiment on 10th day, blood was withdrawn and plasma was used for assay of triglyceride(Tg), cholesterol(chol), high density lipoprotein(HDL), glucose, glycerol and free fatty acids(FFA) by standard spectrophotometric methods on auto analyser. In another set of experiment antidyslipemic activity of fenofibrate at the dose of 1000[…] mole/kg was evaluated.

normal rats = test: Hypoglycaemic activity on OGTT of normal rats (sucrose-loaded rat model); format: in vivo, Sprague Dawley rats; details: 100-mg/kg, oral, 120 min post glucose load
Description: Sucrose-Loaded Rat Model:
Overnight fasted male Sprague Dawley rats were used for the sucrose-loaded experiment. Blood was collected at ‘0’ min from the tail vein of the animals. After the ‘0’ min blood collection, samples/drugs were given to the test group consisting of 5 rats by oral gavage at a dose of 100 mg/kg. Half an hour post test sample treatment, a sucrose-load of 10.0 gm/kg body weight was given to each rat. The blood was collected at 30, 60, 90 & 120 min post sucrose-load.
The antidiabetic effect of test compounds (compound no. 1 and 4) and standard drug Glybenclamide, Gliclazide on OGTT of normal rats was determined.

[3] = tested on: hyperlipedemic rats (triton WR-1339); test: Lipid lowering activity, Triton model (triton WR-1339 induced hyperlipedemia); format: in vivo, Charles foster rats; details: 100 mg/kg oral simultaneously with triton, plasma after 18 hrs, vs hyperlipemic group
Description: (a)Triton Model: Male Charles foster rats weighing 200–225 g were divided into control, hyperlipedemic and hyperlipedemic plus drug treated groups containing six animals each. Hyperlipedemia was induced by administration of triton WR-1339(400 mg/kg,IP). All animals were maintained on standard pellet diet and water ad lib. Test compound no. 1 and Gugulipid (standard drug) were macerated with 2% aqueous gum acacia and this suspension was fed orally at the dose of 100 mg/kg simultaneously with triton. The animals of control group received same amount of gum acacia. At the end of experiment, after 18 hrs, blood was withdrawn from retro orbital plexus and plasma was used for the assay of total cholesterol, phospholipid and triglyceride by standard spectrophotometric method. Results: Administration of triton in rats produced marked hyperlipedemia as observed by the increased levels of plasma cholesterol, phospholipid and triglyceride by 2.92, 3.32, 3.64 folds respectively (Table-1).

[4] = 300 μmol/kg oral day 4 to day 10, plasma on 10th day
[5] = dose 300 (μ)mole/kg, HFD fed hamsters
[6] = 1000 μmol/kg, another set of experiment
[7] = dose 1000 (μ)mole/kg, HFD fed dyslipemic hamsters

For `COc1ccc(NCCCOc2ccc3ccccc3c2)cc1` [Compound 1, N-(4-Methoxyphenyl)-[3-(naphthalen-2-yloxy)propyl]amine], which “lowering on blood glucose in STZ-induced diabetic rats” value [1] is on record?
The value was 28.0%.

What about the “start of blood glucose lowering post drug administration” value [1] of the same molecule?
Its value is 1 h.

What about the “per cent change in CHOL” value [2, 4] of the same molecule?
The value was −8 per cent.

And the “per cent change in GLU” value [2, 4]?
Its value is −31** per cent.

And the “per cent change in GLY” value [2, 4]?
The value was −14 per cent.

And the “per cent change in HDL” value [2, 4]?
The value was “+15 per cent”.

What about the “per cent change in TG” value [2, 4] of the same molecule?
Its value is −48** per cent.

And the “change in FFA levels” value [2, 5]?
Its value is “No significant change”.

What about the “increase in plasma HDL” value [2, 5] of the same molecule?
The value was 15%.

What about the “reduced level of plasma Tg” value [2, 5] of the same molecule?
The value was 48%.

And the “reduced level of plasma chol” value [2, 5]?
Its value is 8%.

What about the “reduced level of plasma glucose” value [2, 5] of the same molecule?
Its value is 31%.

And the “reduced level of plasma glycerol” value [2, 5]?
Its value is 14%.

And the “lowering on OGTT of normal rats” value (normal rats)?
The value was 33.6%.

And the “% lowering of plasma lipids: Triglyceride” value [3]?
Its value is 28%.

And the “% lowering of plasma lipids: Cholesterol” value ([3]; listed as Test Compound 1)?
Its value is 26* %.

What about the “% lowering of plasma lipids: Phospholipid” value ([3]; listed as Test Compound 1) of the same molecule?
Its value is 33** %.

And the “% lowering of plasma lipids: Triglyceride” value ([3]; listed as Test Compound 1)?
Its value is 28* %.

With `CC(C)OC(=O)C(C)(C)Oc1ccc(C(=O)c2ccc(Cl)cc2)cc1` [Fenofibrate] as the molecule, how does the “per cent change in CHOL” value [2, 6] read?
The value was −30** per cent.

And the “per cent change in FFA” value [2, 6]?
Its value is −53** per cent.

What about the “per cent change in GLU” value [2, 6] of the same molecule?
The value was −33** per cent.

And the “per cent change in GLY” value [2, 6]?
Its value is −52** per cent.

And the “per cent change in HDL” value [2, 6]?
The value was “+33** per cent”.

And the “per cent change in TG” value [2, 6]?
The value was −77** per cent.

And the “increase in plasma HDL” value [2, 7]?
The value was 33%.

And the “lowering in plasma FFA” value [2, 7]?
The value was 53%.

And the “lowering in plasma Tg” value [2, 7]?
Its value is 77%.

What about the “lowering in plasma chol” value [2, 7] of the same molecule?
Its value is 30%.

What about the “lowering in plasma glucose” value [2, 7] of the same molecule?
The value was 33%.

What about the “lowering in plasma glycerol” value [2, 7] of the same molecule?
The value was 52%.

What does the source list for `COc1ccc(Cl)cc1C(=O)NCCc1ccc(S(=O)(=O)NC(=O)NC2CCCCC2)cc1` [Glybenclamide]?
lowering on blood glucose in STZ-induced diabetic rats [1]: 32.8%; start of blood glucose lowering post drug administration [1]: 1 h; lowering on OGTT of normal rats (normal rats): 33.9%

Which “lowering on blood glucose in STZ-induced diabetic rats” value [1] does the source give for `Cc1ccc(S(=O)(=O)NC(=O)NN2CC3CCCC3C2)cc1` (stereo not drawn) [Gliclazide] here?
The value was 27.7%.

And the “start of blood glucose lowering post drug administration” value [1]?
Its value is 1 h.

What about the “lowering on OGTT of normal rats” value (normal rats) of the same molecule?
Its value is 44.8%.
